Assay type in all cases: functional
Assay [1] relates to Fusarium oxysporum. Briefly: Antifungal activity against Fusarium oxysporum f. sp. lupini at 1 ug/ml after 96 hrs.
In assay [2] the test system is Fusarium oxysporum. Briefly: Antifungal activity against Fusarium oxysporum f. sp. lupini at 1 ug/ml after 48 hrs.
In assay [3] the test system is Fusarium oxysporum. Briefly: Antifungal activity against Fusarium oxysporum f. sp. lupini at 0.1 ug/ml after 48 hrs.
Assay [4] concerns Fusarium oxysporum. Description: Antifungal activity against Fusarium oxysporum f. sp. lupini at 0.5 ug/ml after 192 hrs.
In assay [5] the test system is Fusarium oxysporum. Description: Antifungal activity against Fusarium oxysporum f. sp. lupini at 1 ug/ml after 192 hrs relative to control. Particulars: read-out: GI.
The test system of assay [6] is Fusarium oxysporum. Description: Antifungal activity against Fusarium oxysporum f. sp. lupini at 0.1 ug/ml after 192 hrs relative to control. The note with it: read-out: GI.
Assay [7] deals with Fusarium oxysporum. Description: Antifungal activity against Fusarium oxysporum f. sp. lupini at 20 ug/ml after 144 hrs.
The subject of assay [8] is Fusarium oxysporum. Description: Antifungal activity against Fusarium oxysporum f. sp. lupini at 1 ug/ml after 192 hrs.
Assay [9] concerns Fusarium oxysporum. Briefly: Antifungal activity against Fusarium oxysporum f. sp. lupini at 0.5 ug/ml after 48 hrs.
Assay [10] concerns Fusarium oxysporum. Description: Antifungal activity against Fusarium oxysporum f. sp. lupini at 20 ug/ml after 192 hrs relative to control. The note with it: read-out: GI.
Assay [11] deals with Fusarium oxysporum. Description: Antifungal activity against Fusarium oxysporum f. sp. lupini at 20 ug/ml after 192 hrs.
Assay [12] deals with Fusarium oxysporum. Description: Antifungal activity against Fusarium oxysporum f. sp. lupini at 0.1 ug/ml after 192 hrs.
The subject of assay [13] is Fusarium oxysporum. Briefly: Antifungal activity against Fusarium oxysporum f. sp. lupini at 0.5 ug/ml after 144 hrs.
Assay [14] deals with Fusarium oxysporum. Description: Antifungal activity against Fusarium oxysporum f. sp. lupini at 1 ug/ml after 144 hrs.
In assay [15] the test system is Fusarium oxysporum. Briefly: Antifungal activity against Fusarium oxysporum f. sp. lupini at 20 ug/ml after 96 hrs.
Assay [16] deals with Fusarium oxysporum. Description: Antifungal activity against Fusarium oxysporum f. sp. lupini at 20 ug/ml after 48 hrs.
Assay [17] has as its system Fusarium oxysporum. Description: Antifungal activity against Fusarium oxysporum f. sp. lupini at 0.1 ug/ml after 144 hrs.
For assay [18], the system named is Fusarium oxysporum. Briefly: Antifungal activity against Fusarium oxysporum f. sp. lupini at 0.1 ug/ml after 96 hrs.
Assay [19] relates to Fusarium oxysporum. Briefly: Antifungal activity against Fusarium oxysporum f. sp. lupini at 0.5 ug/ml after 192 hrs relative to control. Particulars: read-out: GI.
The test system of assay [20] is Fusarium oxysporum. Briefly: Antifungal activity against Fusarium oxysporum f. sp. lupini at 0.5 ug/ml after 96 hrs.

For the compound `CCCCOCCOCCN/C=C1\C(=O)C(O)=C(C(C)C)c2cc(C)c(-c3c(C)cc4c(c3O)/C(=C/NCCOCCOCCCC)C(=O)C(O)=C4C(C)C)c(O)c21`, the “Radial growth inhibition of fungi (Ā) (mm)” value (“Radial growth inhibition” below) is 23.5 mm in [1]; 14.25 mm in assay [2]; 16.38 mm in assay [3]; 45.13 mm in [4]; 33.25 mm in [7]; 44 mm in assay [8]. Moreover, the “Radial growth inhibition” value in [9] is listed as 15.13 mm; in assay [11], 43.63 mm; in assay [12], 49.25 mm; in assay [13], 34.75 mm; in assay [14] it was 33.88 mm; in [15], 23.63 mm. In addition, the “Radial growth inhibition” value in [16] is listed as 13.5 mm; in [17], 36.75 mm; in [18], 25.63 mm; in [20], 24.63 mm. Further, in assay [5], the inhibition of growth at 1 µg/mL came to 25.7%. For the same compound, in [6], the inhibition of growth at 0.1 µg/mL was determined as 16.9%. The inhibition of growth at 20 µg/mL in [10] worked out at 26.4%. Moreover, the inhibition of growth at 0.5 µg/mL in [19] was 23.8%.

For `COCCOCCOCCN/C=C1\C(=O)C(O)=C(C(C)C)c2cc(C)c(-c3c(C)cc4c(c3O)/C(=C/NCCOCCOCCOC)C(=O)C(O)=C4C(C)C)c(O)c21`, the “Radial growth inhibition” value in assay [1] turned out to be 25 mm; in assay [2], 14.88 mm; in assay [3], 16.75 mm; in [4], 48.5 mm; in assay [7] it was 34.13 mm; in assay [8] it was 45.75 mm. For the same compound, the “Radial growth inhibition” value in assay [9] was determined as 16.38 mm; in assay [11] it was 44 mm; in [12] it was 51.75 mm; in assay [13], 36.88 mm; in [14], 35.25 mm; in assay [15], 24.13 mm. The “Radial growth inhibition” value in assay [16] amounted to 14.13 mm; in [17], 39.25 mm; in assay [18], 27 mm; in [20], 25.75 mm. In addition, in [5], the inhibition of growth at 1 µg/mL was 22.8%. The inhibition of growth at 0.1 µg/mL in assay [6] came to 12.7%. In addition, the inhibition of growth at 20 µg/mL in assay [10] worked out at 25.7%. Further, the inhibition of growth at 0.5 µg/mL in assay [19] was 18.1%.

Turning to `COCCOC(C/N=C/c1c(O)c(O)c(C(C)C)c2cc(C)c(-c3c(C)cc4c(c3O)C(/C=N/CC(OCCOC)OCCOC)C(=O)C(O)=C4C(C)C)c(O)c12)OCCOC` (stereo not given), the “Radial growth inhibition” value in [1] is reported as 32.13 mm; in [2], 19.75 mm; in assay [7], 45.5 mm; in [8], 58.63 mm; in assay [11] it was 58.38 mm; in assay [14], 45.63 mm. Further, the “Radial growth inhibition” value in assay [15] was 31.63 mm; in assay [16] it was 19.63 mm. Besides, the inhibition of growth at 1 µg/mL in assay [5] was found to be 1%. In addition, the inhibition of growth at 20 µg/mL in assay [10] was determined as 1.5%.

`CCOC(=O)N1CCC(N/C=C2\C(=O)C(O)=C(C(C)C)c3cc(C)c(-c4c(C)cc5c(c4O)/C(=C/NC4CCN(C(=O)OCC)CC4)C(=O)C(O)=C5C(C)C)c(O)c32)CC1`: the “Radial growth inhibition” value came out at 32.25 mm in assay [1]; 19.88 mm in assay [2]; 46 mm in assay [7]; 59.25 mm in assay [8]; 59 mm in assay [11]; 46.25 mm in [14]. Further, the “Radial growth inhibition” value came to 32.13 mm in assay [15] and 19.63 mm in assay [16]. In addition, in assay [5], the inhibition of growth at 1 µg/mL was found to be 0%. In addition, the inhibition of growth at 20 µg/mL in assay [10] amounted to 0.4%.

`Cc1cc2c(c(O)c1-c1c(C)cc3c(c1O)/C(=C/NCCCN1CCOCC1)C(=O)C(O)=C3C(C)C)/C(=C/NCCCN1CCOCC1)C(=O)C(O)=C2C(C)C`: the “Radial growth inhibition” value came to 31.88 mm in [1]; 19.5 mm in assay [2]; 45.63 mm in assay [7]; 59 mm in [8]; 58.63 mm in assay [11]; 45.88 mm in [14]. Also, the “Radial growth inhibition” value in assay [15] was 31.63 mm; in assay [16] it was 19.25 mm. Further, the inhibition of growth at 1 µg/mL in assay [5] turned out to be 0.4%. Further, the inhibition of growth at 20 µg/mL in [10] was determined as 1%.

`COCC/N=C/c1c(O)c(O)c(C(C)C)c2cc(C)c(-c3c(C)cc4c(c3O)C(/C=N/CCOC)C(=O)C(O)=C4C(C)C)c(O)c12` (stereo not given): the “Radial growth inhibition” value in [1] is given as 32.13 mm; in [2], 19.75 mm; in assay [7] it was 45.88 mm; in [8], 59 mm; in assay [11], 58.88 mm; in assay [14], 46.13 mm. The “Radial growth inhibition” value in [15] is on record as 31.88 mm; in [16], 19.5 mm. Also, in assay [5], the inhibition of growth at 1 µg/mL came out at 0.4%. In addition, the inhibition of growth at 20 µg/mL in [10] was determined as 0.6%.

Take `Cc1cc2c(c(O)c1-c1c(C)cc3c(c1O)/C(=C/NCCc1cccs1)C(=O)C(O)=C3C(C)C)/C(=C/NCCc1cccs1)C(=O)C(O)=C2C(C)C`: the “Radial growth inhibition” value in [1] is 32 mm; in assay [2], 19.63 mm; in [7], 45.75 mm; in assay [8], 59.13 mm; in assay [11], 58.75 mm; in assay [14] it was 46 mm. For the same compound, the entries for the “Radial growth inhibition” value in assay [15] and in [16] were 31.75 mm and 19.38 mm, respectively. Further, the inhibition of growth at 1 µg/mL in [5] worked out at 0.2%. Moreover, the inhibition of growth at 20 µg/mL in assay [10] worked out at 0.8%.

Take `Cc1cc2c(c(O)c1-c1c(C)cc3c(C(C)C)c(O)c(O)c(/C=N/N4CCN(C)CC4)c3c1O)C(/C=N/N1CCN(C)CC1)C(=O)C(O)=C2C(C)C` (stereo not given): the “Radial growth inhibition” value turned out to be 31.88 mm in assay [1]; 19.38 mm in [2]; 45.75 mm in assay [7]; 58.75 mm in assay [8]; 58.5 mm in assay [11]; 45.75 mm in [14]. Further, the “Radial growth inhibition” value in assay [15] is 31.63 mm; in [16], 19.25 mm. Moreover, the inhibition of growth at 1 µg/mL in assay [5] worked out at 0.8%. For the same compound, the inhibition of growth at 20 µg/mL in [10] came to 1.3%.

`Cc1cc2c(c(O)c1-c1c(C)cc3c(c1O)/C(=C/NCCCN1CCCC1=O)C(=O)C(O)=C3C(C)C)/C(=C/NCCCN1CCCC1=O)C(=O)C(O)=C2C(C)C`: the “Radial growth inhibition” value in [1] was determined as 32.13 mm; in [2], 19.75 mm; in assay [7], 45.88 mm; in assay [8], 59.25 mm; in assay [11] it was 58.88 mm; in [14], 46.13 mm. Besides, the “Radial growth inhibition” value stood at 31.88 mm in [15] and 19.5 mm in [16]. Further, the inhibition of growth at 1 µg/mL in assay [5] amounted to 0%. Moreover, in [10], the inhibition of growth at 20 µg/mL came out at 0.6%.

As for `Cc1cc2c(c(O)c1-c1c(C)cc3c(C(C)C)c(O)c(O)c(/C=N/N4CCN(CCO)CC4)c3c1O)C(/C=N/N1CCN(CCO)CC1)C(=O)C(O)=C2C(C)C` (stereo not given), the “Radial growth inhibition” value in [1] is listed as 32 mm; in assay [2], 19.63 mm; in assay [7], 45.38 mm; in assay [8], 58.5 mm; in [11] it was 58.25 mm; in [14] it was 45.5 mm. Moreover, the “Radial growth inhibition” value is listed as 31.5 mm in [15] and 19.5 mm in [16]. The inhibition of growth at 1 µg/mL in assay [5] turned out to be 1.3%. The inhibition of growth at 20 µg/mL in [10] is 1.7%.

The record behind these values is ChEMBL document CHEMBL1158404, “Antifungal activity of alkyl and heterocyclic aza-derivatives of gossypol as well as their complexes with NaClO4 against Fusarium oxysporum f. sp. lupini” (2009).
